In patent US5041567A, “Antibacterial monic acid derivatives” (Beecham Group plc, priority 1982, dated 1991):
Values after ≈ are worked out from the molar mass of the structure shown. Read-outs that look alike come from different tables or passages of the source.

Key:
[1] = test system: M. suipneumoniae MS 16; test: MIC against mycoplasma in vitro; format: cell-based; settings: M. suipneumoniae MS 16, 6 days, 37° C.
[2] = test system: M. suipneumoniae PW/C/210; test: MIC against mycoplasma in vitro; format: cell-based; settings: Mesomycoplasma hyopneumoniae, 144 h; M. suipneumoniae PW/C/210; 6 days, 37° C.; read-out: MIC
[3] = test system: Past. multocida PA2; test: MIC against veterinary bacteria in vitro; settings: Pasteurella multocida, PA2, 18 h
Method: (§1) The activity of the compounds of the Examples against various veterinarily important bacteria, was assayed in vitro using two-fold serial dilutions in Diagnostic Sensitivity Test Agar inoculated with 10^4 organisms.

[4] = test system: Staph. aureus B4 (pen. resistant); test: MIC against veterinary bacteria in vitro
Method: as §1

[5] = test system: S. typhimurium S18; test: MIC against veterinary bacteria in vitro
Method: as §1

[6] = test system: M. bovigenitalium ATCC 14173; test: MIC against mycoplasma in vitro; format: cell-based
[7] = test system: Erysipelothrix rhusiopathiae NCTC 8163; test: MIC against veterinary bacteria in vitro
Method: as §1

[8] = test system: Sarcina lutea 8340; test: MIC against human bacteria in vitro; format: cell-based; settings: Sarcina lutea 8340, 5% chocolated horse blood agar, 18 hours
[9] = test system: K. aerogenes A; test: MIC against human bacteria in vitro; format: cell-based; settings: K. aerogenes A, 5% chocolated horse blood agar, 18 hours
[10] = test system: M. bovis NCTC 10131; test: microbe, parasite or virus in culture; format: cell-based
[11] = test system: M. suipneumoniae NB12; test: MIC against mycoplasma in vitro; format: cell-based; settings: Mesomycoplasma hyopneumoniae, 144 h; M. suipneumoniae NB12; Friis broth, 0.9% agarose, 6 days, 37° C.; read-out: MIC
[12] = test system: M. suipneumoniae J2206/183^b; test: MIC against mycoplasma in vitro; format: cell-based
[13] = test system: M. suipneumoniae TAM 6N; test: MIC against mycoplasma in vitro; format: cell-based
[14] = test system: Strep. agalactiae 2788-B; test: MIC against human bacteria in vitro; format: cell-based; settings: Strep. agalactiae 2788-B, 5% chocolated horse blood agar, 18 hours
[15] = test system: Strep. suis (group D) SPS11; test: MIC against veterinary bacteria in vitro
Method: as §1

[16] = test system: P. mirabilis 889; test: MIC against human bacteria in vitro; format: cell-based; settings: P. mirabilis 889, 5% chocolated horse blood agar, 18 hours
[17] = test system: Bord. bronchiseptica B08; test: MIC against veterinary bacteria in vitro
Method: as §1

[18] = test system: Pasteurella multocida 1633; test: MIC against human bacteria in vitro; format: cell-based; settings: Pasteurella multocida 1633, 5% chocolated horse blood agar, 18 hours
[19] = test system: Corynebacterium pyogenes CY1; test: MIC against veterinary bacteria in vitro
Method: as §1

[20] = test system: M. suipneumoniae Str. 11; test: MIC against mycoplasma in vitro; format: cell-based; settings: M. suipneumoniae Str. 11, 6 days, 37° C.
[21] = test system: Strep. dysgalactiae SPD1; test: MIC against veterinary bacteria in vitro
Method: as §1

[22] = test system: M. hyorhinis ATCC 23234; test: MIC against mycoplasma in vitro; format: cell-based; settings: M. hyorhinis ATCC 23234, 6 days, 37° C.
[23] = test system: Staph. aureus Oxford; test: MIC against veterinary bacteria in vitro
Method: as §1

[24] = test system: Staph. aureus W2827; test: MIC against human bacteria in vitro; format: cell-based; settings: Staph. aureus W2827, 5% chocolated horse blood agar, 18 hours
[25] = test system: M. suipneumoniae UCD 1; test: MIC against mycoplasma in vitro; format: cell-based
[26] = test system: M. suipneumoniae NCTC 10110; test: MIC against mycoplasma in vitro; format: cell-based
[27] = test system: Strep. faecalis I; test: MIC against human bacteria in vitro; format: cell-based; settings: Strep. faecalis I, 5% chocolated horse blood agar, 18 hours
[28] = test system: M. hyorhinis ATCC 25021; test: MIC against mycoplasma in vitro; format: cell-based; settings: M. hyorhinis ATCC 25021, 6 days, 37° C.
[29] = test system: Staph. aureus Oxford; test: MIC against human bacteria in vitro; format: cell-based; settings: Staph. aureus Oxford, 5% chocolated horse blood agar, 18 hours
[30] = test system: M. dispar NCTC 10125; test: MIC against mycoplasma in vitro; format: cell-based
[31] = test system: M. gallisepticum S6; test: MIC against mycoplasma in vitro; format: cell-based
[32] = test system: M. suipneumoniae JF 435; test: MIC against mycoplasma in vitro; format: cell-based
[33] = test system: Staph. aureus 152 (pen. sens); test: MIC against veterinary bacteria in vitro
Method: as §1

[34] = test system: M. suipneumoniae HK(2); test: MIC against mycoplasma in vitro; format: cell-based
[35] = Mesomycoplasma hyopneumoniae, 144 h
[36] = Staphylococcus aureus, read-out: MIC

C/C(=C\c1ncc(-c2ccsc2)o1)C[C@@H]1OC[C@H](C[C@@H]2O[C@H]2[C@@H](C)[C@H](C)O)[C@@H](O)[C@H]1O [Example 20, 5-(3-Thienyl)-2-(1-normon-2-yl) oxazole A]
MIC ([1]; Mesomycoplasma hyopneumoniae, MS16, 144 h, read-out: MIC): 0.5 µg/mL (≈ 1.11 µM) | MIC [2]: 0.5 µg/mL (≈ 1.11 µM) | MIC [3]: 0.312 µg/mL (≈ 0.694 µM) | MIC ([4]; Staphylococcus aureus, 18 h): 0.63 µg/mL (≈ 1.4 µM) | MIC ([5]; Salmonella enterica, TYPHIMURIUM, 18 h): > 80 µg/mL | MIC ([6]; 144 h): 0.05 µg/mL (≈ 0.111 µM) | MIC ([7]; Erysipelothrix rhusiopathiae, NCTC8163, 18 h): 80 µg/mL (≈ 178 µM) | MIC ([8]; Micrococcus luteus, read-out: MIC): > 128 µg/mL | MIC ([9]; Klebsiella aerogenes, read-out: MIC): > 128 µg/mL | MIC ([10]; NCTC10131, 144 h): ≤ 0.01 µg/mL | MIC [11]: 0.5 µg/mL (≈ 1.11 µM) | MIC [12, 35]: 1 µg/mL (≈ 2.22 µM) | MIC ([13]; Mesomycoplasma hyopneumoniae, TAM6N, 144 h): 1 µg/mL (≈ 2.22 µM) | MIC ([14]; Streptococcus agalactiae, read-out: MIC): 2 µg/mL (≈ 4.45 µM) | MIC ([15]; Streptococcus suis, 18 h): 40 µg/mL (≈ 89 µM) | MIC ([16]; Proteus mirabilis, read-out: MIC): > 128 µg/mL | MIC ([17]; Bordetella bronchiseptica, B08, 18 h): 80 µg/mL (≈ 178 µM) | MIC ([18]; read-out: MIC): 4 µg/mL (≈ 8.9 µM) | MIC ([19]; CY1, 18 h): > 80 µg/mL | MIC ([20]; Mesomycoplasma hyopneumoniae, 144 h, read-out: MIC): 0.5 µg/mL (≈ 1.11 µM) | MIC ([21]; Streptococcus dysgalactiae, SPD1, 18 h): 0.625 µg/mL (≈ 1.39 µM) | MIC ([22]; Mesomycoplasma hyorhinis, ATCC23234, 144 h, read-out: MIC): 0.5 µg/mL (≈ 1.11 µM) | MIC ([23]; Staphylococcus aureus, 18 h): 2.55 µg/mL (≈ 5.67 µM) | MIC [24, 36]: 4 µg/mL (≈ 8.9 µM) | MIC ([25]; Mesomycoplasma hyopneumoniae, UCD1, 144 h): 1 µg/mL (≈ 2.22 µM) | MIC ([26]; Mesomycoplasma hyopneumoniae, NCTC10110, 144 h): 1 µg/mL (≈ 2.22 µM) | MIC ([27]; Enterococcus faecalis, read-out: MIC): > 128 µg/mL | MIC ([28]; Mesomycoplasma hyorhinis, ATCC25021, 144 h, read-out: MIC): 0.5 µg/mL (≈ 1.11 µM) | MIC [29, 36]: 4 µg/mL (≈ 8.9 µM) | MIC ([30]; 144 h): 0.25 µg/mL (≈ 0.556 µM) | MIC ([31]; Mycoplasmoides gallisepticum, S6, 144 h): 2.5 µg/mL (≈ 5.56 µM) | MIC ([32]; Mesomycoplasma hyopneumoniae, JF435, 144 h): 1 µg/mL (≈ 2.22 µM) | MIC ([33]; Staphylococcus aureus, 18 h): 0.63 µg/mL (≈ 1.4 µM) | MIC [34, 35]: 1 µg/mL (≈ 2.22 µM)

CC(=Cc1cnc(-c2ccccc2)o1)CC1OCC(CC2OC2C(C)C(C)O)C(O)C1O (centres unmarked) [Example 35, 5-(1-Normon-2-yl)-2-phenyloxazole A]
MIC [1]: > 10 µg/mL | MIC ([4]; Staph. aureus B4 (pen. resistant), Diagnostic Sensitivity Test Agar, 18 hours): > 80 µg/mL | MIC ([5]; S. typhimurium S18, Diagnostic Sensitivity Test Agar, 18 hours): > 80 µg/mL | MIC ([6]; M. bovigenitalium ATCC 14173, 6 days, 37° C.): 5.0 µg/mL (≈ 11.3 µM) | MIC ([7]; Erysipelothrix rhusiopathiae NCTC 8163, Diagnostic Sensitivity Test Agar, 18 hours): > 80 µg/mL | MIC [8]: > 128 µg/mL | MIC [9]: > 128 µg/mL | MIC ([10]; M. bovis NCTC 10131, 6 days, 37° C.): 2.5 µg/mL (≈ 5.64 µM) | MIC ([12]; M. suipneumoniae J2206/183^b, 6 days, 37° C.): > 10 µg/mL | MIC ([13]; M. suipneumoniae TAM 6N, 6 days, 37° C.): > 10 µg/mL | MIC [14]: > 128 µg/mL | MIC ([15]; Strep. suis (group D) SPS11, Diagnostic Sensitivity Test Agar, 18 hours): > 80 µg/mL | MIC [16]: > 128 µg/mL | MIC ([17]; Bord. bronchiseptica B08, Diagnostic Sensitivity Test Agar, 18 hours): > 80 µg/mL | MIC [18]: > 128 µg/mL | MIC ([19]; Corynebacterium pyogenes CY1, Diagnostic Sensitivity Test Agar, 18 hours): > 80 µg/mL | MIC [20]: > 10 µg/mL | MIC ([21]; Strep. dysgalactiae SPD1, Diagnostic Sensitivity Test Agar, 18 hours): > 80 µg/mL | MIC [22]: > 10 µg/mL | MIC ([23]; Staph. aureus Oxford, Diagnostic Sensitivity Test Agar, 18 hours): > 80 µg/mL | MIC [24]: > 128 µg/mL | MIC ([25]; M. suipneumoniae UCD 1, 6 days, 37° C.): > 10 µg/mL | MIC ([26]; M. suipneumoniae NCTC 10110, 6 days, 37° C.): > 10 µg/mL | MIC [27]: > 128 µg/mL | MIC [28]: > 10 µg/mL | MIC [29]: > 128 µg/mL | MIC ([30]; M. dispar NCTC 10125, 6 days, 37° C.): > 10 µg/mL | MIC ([31]; M. gallisepticum S6, 6 days, 37° C.): > 10 µg/mL | MIC ([32]; M. suipneumoniae JF 435, 6 days, 37° C.): > 10 µg/mL | MIC ([33]; Staph. aureus 152 (pen. sens), Diagnostic Sensitivity Test Agar, 18 hours): > 80 µg/mL | MIC ([34]; M. suipneumoniae HK(2), 6 days, 37° C.): > 10 µg/mL
